# Data from US20180000085A1, “USE OF PICOLINAMIDE COMPOUNDS WITH FUNGICIDAL ACTIVITY” (DOW AGROSCIENCES LLC, priority 2014, published 2018).
# Tests used:
# Format in all cases: in vivo
# [1] = tested on: Zymoseptoria tritici; assay: Leaf blotch of wheat (SEPTTR) disease control on wheat seedlings; set-up: key to SEPTTR 1DP, HV activity at 100 ppm (% control rating) / SEPTTR 3DC, HV activity at 100 ppm (% control rating) / SEPTTR disease control, 1DP / SEPTTR disease control, 3DC / SEPTTR 1DP disease control rating, HV activity / SEPTTR 3DC disease control rating, HV activity / SEPTTR 3DC, LV activity at 125.1 g/H (% Control rating) / SEPTTR 1DP, LV activity at 125.1 g/H (% Control rating) / SEPTTR 1DP disease control rating, LV activity at 125.1 g/H / SEPTTR 3DC disease control rating, LV activity at 125.1 g/H / SEPTTR 3DC disease control rating, HV activity at 100 ppm / SEPTTR 1DP disease control rating, HV activity at 100 ppm / HV activity at 100 ppm SEPTTR 3DC (disease control rating) / HV activity at 100 ppm SEPTTR 1DP (disease control rating) / LV activity at 125.1 g/H SEPTTR 1DP (disease control rating) / LV activity at 125.1 g/H SEPTTR 3DC (disease control rating): A: > 80; B: ≤ 80; C: Not Tested; D: No Activity Observed in the Reported Assay; settings: low volume application, 125.1 g/H; for SEPTTR 1DP, LV activity at 125.1 g/H (% Control rating): 1 Day Protectant; for SEPTTR 3DC, LV activity at 125.1 g/H (% Control rating): 3 Day Curative; for SEPTTR 1DP disease control rating, LV activity at 125.1 g/H: 1 day protectant; for SEPTTR 3DC disease control rating, LV activity at 125.1 g/H: 3 day curative
# [2] = tested on: Puccinia triticina; assay: Wheat brown rust (PUCCRT) disease control on wheat seedlings; settings: low volume application, 125.1 g/H; for PUCCRT 1DP, LV activity at 125.1 g/H (% Control rating): 1 Day Protectant; for PUCCRT 3DC, LV activity at 125.1 g/H (% Control rating): 3 Day Curative; for PUCCRT 1DP disease control rating, LV activity at 125.1 g/H: 1 day protectant; for PUCCRT 3DC disease control rating, LV activity at 125.1 g/H: 3 day curative
# [3] = tested on: Phakopsora pachyrhizi; assay: Asian soybean rust (PHAKPA) disease control; set-up: key: A: > 80; B: ≤ 80; C: Not Tested; D: No Activity Observed in the Reported Assay; settings: 25 ppm; for PHAKPA disease control, 1DP: 1 Day Protectant; for PHAKPA disease control, 3DC: 3 Day Curative
SMILES,"SEPTTR 1DP, LV activity at 125.1 g/H (% Control rating) [1]","SEPTTR 3DC, LV activity at 125.1 g/H (% Control rating) [1]","PUCCRT 1DP, LV activity at 125.1 g/H (% Control rating) [2]","PUCCRT 3DC, LV activity at 125.1 g/H (% Control rating) [2]","PHAKPA disease control, 1DP [3]","PHAKPA disease control, 3DC [3]","SEPTTR 1DP disease control rating, LV activity at 125.1 g/H [1]","SEPTTR 3DC disease control rating, LV activity at 125.1 g/H [1]","PUCCRT 1DP disease control rating, LV activity at 125.1 g/H [2]","PUCCRT 3DC disease control rating, LV activity at 125.1 g/H [2]"
COc1ccnc(C(=O)N[C@@H](C)C(=O)O[C@@H](C)[C@H](Oc2cc(F)ccc2F)C(C)C)c1OCOC(C)=O [Cmpd 616],B (≤ 80),A (> 80),A (> 80),A (> 80),A (> 80),A (> 80),,,,
COc1ccnc(C(=O)N[C@@H](C)C(=O)O[C@@H](C)[C@H](Oc2cccc3ccccc23)C(C)C)c1OCOC(C)=O [Cmpd 621],B (≤ 80),A (> 80),A (> 80),A (> 80),A (> 80),D,,,,
COc1ccnc(C(=O)N[C@@H](C)C(=O)O[C@@H](C)[C@H](Oc2ccc(F)cc2)C(C)C)c1OC(C)=O [Cmpd 626],A (> 80),A (> 80),A (> 80),A (> 80),A (> 80),B (≤ 80),,,,
COc1ccnc(C(=O)N[C@@H](C)C(=O)O[C@@H](C)[C@H](Oc2cc(F)ccc2F)C(C)C)c1OC(C)=O [Cmpd 627],B (≤ 80),A (> 80),A (> 80),A (> 80),B (≤ 80),B (≤ 80),,,,
COc1ccnc(C(=O)N[C@@H](C)C(=O)O[C@@H](C)[C@H](Oc2ccccc2Cl)c2ccccc2)c1OCOC(C)=O [Cmpd 639],B (≤ 80),A (> 80),A (> 80),A (> 80),A (> 80),B (≤ 80),,,,
CCC(CC)[C@H](Oc1cccc(F)c1)[C@H](C)OC(=O)[C@H](C)NC(=O)c1nccc(OC)c1OCOC(C)=O [Cmpd 668],,,,,B (≤ 80),B (≤ 80),A (> 80),A (> 80),A (> 80),A (> 80)
CCC(CC)[C@H](Oc1ccc(Cl)cc1)[C@H](C)OC(=O)[C@H](C)NC(=O)c1nccc(OC)c1OCOC(C)=O [Cmpd 669],,,,,A (> 80),B (≤ 80),A (> 80),A (> 80),A (> 80),A (> 80)
CCC(CC)[C@H](Oc1ccc(Cl)cc1Cl)[C@H](C)OC(=O)[C@H](C)NC(=O)c1nccc(OC)c1OCOC(C)=O [Cmpd 670],,,,,B (≤ 80),B (≤ 80),A (> 80),A (> 80),A (> 80),A (> 80)
C=CC(C)C(Oc1ccccc1)C(C)OC(=O)C(C)NC(=O)c1nccc(OC)c1OC(C)=O (stereo not drawn) [Cmpd 693],,,,,A (> 80),B (≤ 80),B (≤ 80),A (> 80),A (> 80),A (> 80)
CCC[C@@H](Oc1ccccc1)[C@H](C)OC(=O)[C@H](C)NC(=O)c1nccc(OC)c1OC(C)=O [Cmpd 696],,,,,A (> 80),A (> 80),A (> 80),A (> 80),A (> 80),A (> 80)
COc1ccnc(C(=O)N[C@@H](C)C(=O)O[C@@H](C)[C@H](OCC2CC2)c2cccc(-c3ccccc3)c2)c1OCOC(C)=O [Cmpd 873],,,,,A (> 80),B (≤ 80),B (≤ 80),A (> 80),A (> 80),A (> 80)
COc1ccnc(C(=O)N[C@@H](C)C(=O)O[C@@H](C)[C@H](OCC(C)C)c2ccccc2)c1OC(C)=O [Cmpd 879],,,,,A (> 80),B (≤ 80),B (≤ 80),A (> 80),A (> 80),A (> 80)
CCCO[C@H](c1ccccc1)[C@H](C)OC(=O)[C@H](C)NC(=O)c1nccc(OC)c1OC(C)=O [Cmpd 884],,,,,A (> 80),D,B (≤ 80),A (> 80),A (> 80),A (> 80)
COc1ccnc(C(=O)N[C@@H](C)C(=O)O[C@@H](C)[C@@H](OC)c2ccccc2)c1OCOC(C)=O [Cmpd 886],,,,,B (≤ 80),B (≤ 80),D,A (> 80),A (> 80),A (> 80)
COc1ccnc(C(=O)NC(C)C(=O)OC(C)C(Oc2ccccc2)C2CCCCC2)c1OC(C)=O (stereo not drawn) [Cmpd 908],,,,,A (> 80),B (≤ 80),A (> 80),A (> 80),A (> 80),A (> 80)
COc1ccnc(C(=O)NC(C)C(=O)OC(C)C(Oc2cccc(F)c2)C2CCCC2)c1OCOC(C)=O (stereo not drawn) [Cmpd 909],,,,,A (> 80),B (≤ 80),A (> 80),A (> 80),A (> 80),A (> 80)
COc1ccnc(C(=O)NC(C)C(=O)OC(C)C(Oc2ccc(F)cc2)C2CCCC2)c1OCOC(C)=O (stereo not drawn) [Cmpd 910],,,,,A (> 80),B (≤ 80),A (> 80),A (> 80),A (> 80),A (> 80)
"COc1ccnc(C(=O)N[C@@H](C)C(=O)O[C@@H](C)[C@H](Oc2cccc(Cl)c2)C2CCCC2)c1OCOC(C)=O [Cmpd 911, (S)-(1R,2S)-1-(3-chlorophenoxy)-1-cyclopentylpropan-2-yl-2-(3-(acetoxymethoxy)-4-methoxypicolinamido)propanoate]",,,,,A (> 80),B (≤ 80),A (> 80),A (> 80),A (> 80),A (> 80)
COc1ccnc(C(=O)NC(C)C(=O)OC(C)C(Oc2ccc(Cl)cc2)C2CCCC2)c1OCOC(C)=O (stereo not drawn) [Cmpd 912],,,,,B (≤ 80),B (≤ 80),A (> 80),A (> 80),A (> 80),A (> 80)
